Measurements from patent publication US7470716B2, “Imidazoles and triazoles, their preparation, and their use as pharmaceutical compositions” (Boehringer Ingelheim International GmbH, priority 2004, dated 2008).

Legend:
DPP-IV = target: T1, DPP-IV (Homo sapiens, UniProt P27487); assay: DPP-IV assay with Caco-2 cell extract as DPP IV source, AFC substrate, fluorescence; format: biochemical; conditions: extract of human colon carcinoma cell line Caco-2; substrate 100 μM; 60 minutes at ambient temperature; read-out: DPP IV inhibition IC50
T1 construct: an extract of the human colon carcinoma cell line Caco-2 is used as the DPP IV source; endogenous in cells; host or cells: Caco-2 (human colon carcinoma), differentiated to induce DPP-IV expression; Nonidet-P40 solubilised extract
T1 sequence (P27487 whole entry): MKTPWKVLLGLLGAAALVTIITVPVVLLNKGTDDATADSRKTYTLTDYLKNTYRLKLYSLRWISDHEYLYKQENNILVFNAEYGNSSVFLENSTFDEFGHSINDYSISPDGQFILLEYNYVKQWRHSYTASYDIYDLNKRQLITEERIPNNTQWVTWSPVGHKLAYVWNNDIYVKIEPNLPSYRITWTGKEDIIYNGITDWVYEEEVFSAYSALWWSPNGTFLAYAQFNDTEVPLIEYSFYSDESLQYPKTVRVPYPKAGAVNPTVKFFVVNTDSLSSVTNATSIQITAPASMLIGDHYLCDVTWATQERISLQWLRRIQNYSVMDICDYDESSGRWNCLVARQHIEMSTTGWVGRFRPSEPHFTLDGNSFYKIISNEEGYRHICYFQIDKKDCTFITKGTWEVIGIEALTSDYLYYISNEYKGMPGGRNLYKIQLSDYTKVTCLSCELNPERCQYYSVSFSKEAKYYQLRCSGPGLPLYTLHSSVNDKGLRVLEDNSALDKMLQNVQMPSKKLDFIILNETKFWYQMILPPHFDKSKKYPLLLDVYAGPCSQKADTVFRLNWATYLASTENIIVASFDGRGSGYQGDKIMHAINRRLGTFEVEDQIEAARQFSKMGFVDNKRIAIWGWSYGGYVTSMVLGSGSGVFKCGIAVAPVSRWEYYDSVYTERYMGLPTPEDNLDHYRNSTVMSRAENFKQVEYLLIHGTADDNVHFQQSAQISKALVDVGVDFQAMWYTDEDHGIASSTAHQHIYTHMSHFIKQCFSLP
Description: The cell extract was obtained from cells solubilised in a buffer (10 mM Tris HCl, 0.15 M NaCl, 0.04 t.i.u. aprotinin, 0.5% Nonidet-P40, pH 8.0) by centrifugation at 35,000 g for 30 minutes at 4° C. (to remove cell debris).
The DPP-IV assay was carried out as follows:
50 μl of substrate solution (AFC; AFC is amido-4-trifluoromethylcoumarin), final concentration 100 μM, were placed in black microtitre plates. 20 μl of assay buffer (final concentrations 50 mM Tris HCl pH 7.8, 50 mM NaCl, 1% DMSO) was pipetted in. The reaction was started by the addition of 30 μl of solubilised Caco-2 protein (final concentration 0.14 μg of protein per well). The test substances under investigation were typically added prediluted to 20 μl, while the volume of assay buffer was then reduced accordingly. The reaction was carried out at ambient temperature, the incubation period was 60 minutes. […] Dummy values (corresponding to 0% activity) were obtained in mixtures with no Caco-2 protein (volume replaced by assay buffer), control values (corresponding to 100% activity) were obtained in mixtures without any added substance.

rats = assay: Tolerability: behavior of rats after oral administration; format: in vivo; conditions: oral administration of 10 mg/kg

Structure (SMILES) | IC50 (DPP-IV) | changes in the behavior of rats (tolerability) (rats)
CC#CCn1c(C(=O)NCc2nc3ccccc3c3ccccc23)cnc1N1CCCC(N)C1 (centres unmarked) [1(2), 1-(but-2-ynyl)-2-(3-amino-piperidin-1-yl)-5-(phenanthridin-6-ylmethylaminocarbonyl)-1H-imidazole] | 0.041 µM | 
CC#CCn1c(C(=O)NCc2ccc3ncccc3c2)nnc1N1CCCC(N)C1 (centres unmarked) [4(2), 3-(3-amino-piperidin-1-yl)-4-(but-2-ynyl)-5-(quinolin-6-ylmethylaminocarbonyl)-4H-[1,2,4]triazole] | 0.036 µM | 
CC#CCn1c(C(=O)NCc2nc(C)cc3ccccc23)nnc1N1CCCC(N)C1 (centres unmarked) [Example 4(1), 3-(3-amino-piperidin-1-yl)-4-(but-2-ynyl)-5-(3-methyl-isoquinolin-1-ylmethylaminocarbonyl)-4H-[1,2,4]triazole] |  | no changes in the behavior of rats could be detected

Now from value to molecule, other results behind:

IC50 (DPP-IV) | Structure (SMILES) | changes in the behavior of rats (tolerability) (rats)
0.386 µM | CC(C)=CCn1c(C(=O)NCc2cccc3ccccc23)nnc1N1CCCNCC1 [2(2), 3-([1,4]diazepan-1-yl)-4-(3-methyl-but-2-enyl)-5-(naphth-1-ylmethylaminocarbonyl)-4H-[1,2,4]triazole] | 
0.101 µM | NC1CCCN(c2nnc(C(=O)NCc3cccc4ccccc34)n2Cc2ccccc2)C1 (centres unmarked) [3(1), 3-(3-amino-piperidin-1-yl)-4-benzyl-5-(naphth-1-ylmethylaminocarbonyl)-4H-[1,2,4]triazole] | 
0.367 µM | CC(C)=CCn1c(C(=O)NCc2cccc3ccccc23)nnc1N1CCNCC1 [Example 2, 3-(piperazin-1-yl)-4-(3-methyl-but-2-enyl)-5-(naphth-1-ylmethylaminocarbonyl)-4H-[1,2,4]triazole] | 
0.101 µM | CC(C)=CCn1c(C(=O)NCc2cccc3ccccc23)nnc1N1CCCC(N)C1 (centres unmarked) [Example 3, 3-(3-amino-piperidin-1-yl)-4-(3-methyl-but-2-enyl)-5-(naphth-1-ylmethylaminocarbonyl)-4H-[1,2,4]triazole] | 
0.382 µM | NC1CCCN(c2nnc(C(=O)NCc3cccc4ccccc34)n2Cc2ccccc2Cl)C1 (centres unmarked) [Example 4, 3-(3-amino-piperidin-1-yl)-4-(2-chloro-benzyl)-5-(naphth-1-ylmethylaminocarbonyl)-4H-[1,2,4]triazole] | 
